Laboratory results from patent US11235074B2, “Contrast agents for magnetic resonance imaging” (Duke University, priority 2015, dated 2022).
Where two headings read alike, the source gives them in different places.

Columns and labels:
[1] = cited from earlier work
[2] = In vitro phantom quantitative T2 mapping (spin-spin relaxation MRI contrast) at 7 T
Protocol: Data are provided from quantitative T2 mapping at 7 T using a RARE FSE protocol with at least 6 different echo times, at solute concentrations of 10 and 20 mM.

[3] = test system: brain of normal C57 black mouse; assay: In vivo ascorbate T2 contrast changes in normal mouse brain; settings: 2 g/kg i.v., normal C57 mice, FIG. 9B
Protocol: Color-lute maps of signal intensity are not subtracted from the pre-dose scan and therefore show the expected decreases in T2 signal over time, maximized between 30-60 min in normal C57 mice.

[4] = cited from earlier work; remark: listed apart in the source
[5] = cited from earlier work; remark: listed apart in the source
[6] = test system: whole brains of guinea pigs; assay: T2 contrast changes in guinea pig brain after i.v. ascorbate formulations, 7 T; assay type: in vivo; settings: 2 g/kg i.v. over 60 minutes, nearly every time point
Protocol: MRI was performed for 90 minutes.

Molecule | plasma concentration achievable ([1]; administered intravenously) | plasma concentration ([1]; oral ascorbate, doses more than 100 times the recommended daily allowance) | excretion half-life ([1]; urinary excretion of concentrations over the renal re-absorption threshold) | change in T2 relaxation ([2]; 10 mM ascorbate with physiological glucose (5 mM) or HCO3- (25 mM), FIG. 5) | pH at which T2 effect is maximized ([2]; FIG. 3C) | lowest concentration with statistically significant negative T2 contrast (signal loss) ([2]; vs phosphate-buffered saline control, conventional FSE acquisition, FIG. 3A) | time of maximal decrease in T2 signal [3] | H2O2 concentration in brain and tumors in vivo following parenteral ascorbate ([4]; brain and tumors) | intracellular concentration ([4]; tumors, brain cells and some other tissues) | pKA ([5]; disproportionation reaction at equilibrium) | pKA ([5]; hydroxyl group at the 4 position) | fraction present as the mono anion ([5]; physiological pH (7.4)) | FSE T2 weighted signal intensity changes, comparison between formulations [6] | T2 contrast effect (T2 relaxation in ms) relative to meglumine or ascorbate alone ([2]; water, neutral pH, FIG. 3D)
O=C1O[C@H]([C@@H](O)CO)C(O)=C1O [ascorbate, L-ascorbic acid] | ≥ 10000 µM | ≤ 200 µM | about 30 minutes | 50% | 7.0-7.4 | 1 to 5 mM | 30 to 60 min | 100 to 200 µM | 10 to 30 mM | 7.0 | 6.75 | 99% | – | –
meglumine ascorbate | – | – | – | – | – | – | – | – | – | – | – | – | greater than those observed with sodium ascorbate (1) | approximately 4 times
